Assay [1] deals with d(CGTATACG)2 (DNA, duplex) CGTATACG
The assay is described as follows: UV melting at 260 nm. As to conditions: 100 mM KCl, 5 mM MgCl2; 20 mM sodium cacodylate pH 7.3; 3 μM DNA, DNA:compound 1:4; 1 °C/min.

Assay [2] has the same test system. The assay is described as follows: X-ray crystallography, 1.58 Å.

Consider `c1ccc2c(NCCCCCNc3c4ccccc4nc4ccccc34)c3ccccc3nc2c1`, for which, in assay [1], the Tm increase was ~ 8.6 °C. For the same compound, the binding result in assay [2] (50 mM NaCl, 10 mM MgCl2, 25 mM bis-tris pH 7.0, 15% MPD, 20 °C, 0.3 mM DNA, DNA:DA5 1:1) is reported as “yes”.

On to `c1ccc2c(NCCCCNc3c4ccccc4nc4ccccc34)c3ccccc3nc2c1`, for which the Tm increase in assay [1] is ~ 5.8 °C. Besides, the binding entry in assay [2] (200 mM KCl, 6 mM MnCl2, 50 mM MES pH 6.3, 10% PEG400, 20 °C, 0.5 mM DNA, 1 mM DA4) is “yes”.

The values above are taken from publication PMC11347135 (2024).
